Measurements published in ChEMBL document CHEMBL1201862, “PubChem BioAssay data set” (2004).
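The compound was tested at five concentrations on cells cultured in 96-well plates, with a 48-hour exposure period. At the GI50, growth is halved.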 Calls of active or inactive are those of the source. Cut-off read from the data, not from the text of the source: active = GI50 up to about 1.1 µM and inactive = higher.

Assays:
Assay in all cases: inhibition of tumour cell growth, NCI panel, 48 h
DMS-114 = test system: DMS-114
DLD-1 = test system: DLD-1
LXFL 529 = test system: LXFL 529
KM-20L2 = test system: KM-20L2
DMS-273 = test system: DMS-273
XF498 = test system: XF498
SNB-78 = test system: SNB-78
M19-MEL = test system: M19-MEL
RXF 631 = test system: RXF 631

Measured: GI50

O=C1c2ccccc2C(=O)c2c(NCCNCCO)ccc(O)c21
inactive: DMS-114 4.59 µM | DLD-1 3.33 µM | LXFL 529 3.69 µM | KM-20L2 2.94 µM | DMS-273 2.22 µM | XF498 4.89 µM | SNB-78 4.61 µM | M19-MEL 2.82 µM

CN(N=O)C(=O)N[C@H]1C(O)O[C@H](CO)[C@@H](O)[C@@H]1O (stereo not given in full)
inactive: DMS-114 504 µM | DLD-1 632 µM | LXFL 529 > 750 µM | KM-20L2 > 750 µM | DMS-273 528 µM | XF498 557 µM | SNB-78 545 µM | M19-MEL 475 µM

C=CCC(OCCOCC)c1cc(OCCOCC)ccc1OC (stereo not given)
inactive: LXFL 529 > 100 µM | DMS-273 > 100 µM | XF498 > 100 µM | SNB-78 > 100 µM | M19-MEL > 100 µM

CCOc1ccc(NCC2CC/C(=C\c3ccccc3OC)C2=O)cc1 (stereo not given)
inactive: DMS-114 9.71 µM | DLD-1 3.09 µM | RXF 631 23.8 µM | LXFL 529 2.56 µM | KM-20L2 14 µM | DMS-273 2.58 µM | SNB-78 16.5 µM | M19-MEL 8.95 µM

COc1ccc(/N=N/c2c(N)nn(C)c2N)cc1
inactive: DMS-114 > 100 µM | DLD-1 > 100 µM | RXF 631 > 100 µM | LXFL 529 > 100 µM | KM-20L2 > 100 µM | DMS-273 > 100 µM | SNB-78 > 100 µM | M19-MEL > 100 µM

O=C(/C=C/c1ccccc1)c1ccc(NCc2nc3ccccc3[nH]2)cc1
inactive: DMS-114 2.56 µM | DLD-1 4.27 µM | LXFL 529 2.83 µM | KM-20L2 2.9 µM | DMS-273 4.5 µM | XF498 7.6 µM | SNB-78 4.9 µM | M19-MEL 4.41 µM

COC(=O)/C(=N\Nc1nc(S)nn1N)C(C#N)c1ccccc1 (stereo not given)
inactive: DLD-1 > 100 µM | LXFL 529 > 100 µM | KM-20L2 > 100 µM | SNB-78 > 100 µM | M19-MEL > 100 µM

O=C1C/C(=C/c2ccc(/C=C3/CC(=O)N(c4cccc(Br)c4)C3=O)cc2)C(=O)N1c1cccc(Br)c1
inactive: DMS-114 > 100 µM | DLD-1 > 100 µM | LXFL 529 > 100 µM | KM-20L2 > 100 µM | DMS-273 > 100 µM | XF498 26.5 µM | SNB-78 36.2 µM | M19-MEL > 100 µM

O=C1[C@H]2ON(c3ccccc3)C(c3ccc(Cl)cc3)[C@H]2C(=O)N1c1ccc(Cc2ccc(N3C(=O)[C@@H]4ON(c5ccccc5)C(c5ccc(Cl)cc5)[C@@H]4C3=O)cc2)cc1 (stereo not given in full)
inactive: DMS-114 > 100 µM | DLD-1 > 100 µM | RXF 631 > 100 µM | LXFL 529 94.8 µM | KM-20L2 > 100 µM | DMS-273 > 100 µM | SNB-78 > 100 µM | M19-MEL > 100 µM

CCCC(Sc1ccccc1)P(=O)(c1ccccc1)c1ccccc1 (stereo not given)
inactive: DMS-114 34.8 µM | DLD-1 19.6 µM | RXF 631 30.1 µM | KM-20L2 > 100 µM | DMS-273 36.6 µM | SNB-78 37.6 µM | M19-MEL 34.6 µM

CC(=O)OCCOCNC(=S)N/N=C(\C)c1ccco1
inactive: DMS-114 > 100 µM | DLD-1 > 100 µM | RXF 631 > 100 µM | LXFL 529 > 100 µM | KM-20L2 > 100 µM | DMS-273 > 100 µM | SNB-78 > 100 µM | M19-MEL > 100 µM

COC(=O)c1nc(C(=O)OC)c2c([nH]c3ccccc32)c1C(=O)OC
inactive: DMS-114 49.3 µM | DLD-1 65.6 µM | LXFL 529 74.5 µM | DMS-273 60 µM | XF498 35.2 µM | SNB-78 > 100 µM

Cn1c2cc(O)cc(O)c2c(=O)c2c([N+](=O)[O-])cccc21
inactive: DMS-114 > 100 µM | DLD-1 > 100 µM | RXF 631 > 100 µM | LXFL 529 > 100 µM | KM-20L2 > 100 µM | DMS-273 > 100 µM | SNB-78 > 100 µM

COC(=O)[C@@]1(C)C(=O)CC[C@@H]1C=O
inactive: DMS-114 > 100 µM | DLD-1 > 100 µM | LXFL 529 > 100 µM | KM-20L2 > 100 µM | XF498 > 100 µM | SNB-78 > 100 µM | M19-MEL > 100 µM

CCOC(=O)NC(=O)c1cn(CCCOC(=O)CCCCCCCCCCC(=O)OCCCn2cc(C(=O)NC(=O)OCC)c(=O)n(C)c2=O)c(=O)n(C)c1=O
inactive: DMS-114 > 100 µM | DLD-1 > 100 µM | LXFL 529 > 100 µM | DMS-273 > 100 µM | XF498 > 100 µM | SNB-78 > 100 µM | M19-MEL > 100 µM

CCOC(=O)/C(I)=C/c1cc(OC)c(OC)c(OC)c1
inactive: DMS-114 2.92 µM | DLD-1 6.03 µM | LXFL 529 10.4 µM | KM-20L2 3.21 µM | DMS-273 6.68 µM | XF498 2.92 µM | SNB-78 28.2 µM | M19-MEL 4.12 µM

CC(=O)Nc1ccc(S(=O)(=O)Nc2cnc3ccccc3n2)cc1
inactive: DMS-114 > 100 µM | DLD-1 > 100 µM | LXFL 529 > 100 µM | KM-20L2 > 100 µM | DMS-273 > 100 µM | XF498 > 100 µM | M19-MEL > 100 µM

CCCCCC(/C=C/[C@@H]1[C@H]2CC(=O)O[C@H]2C[C@H]1N1CCOCC1)OC1CCCO1 (stereo not given in full)
inactive: DMS-114 > 100 µM | DLD-1 > 100 µM | LXFL 529 > 100 µM | KM-20L2 > 100 µM | DMS-273 > 100 µM | SNB-78 > 100 µM | M19-MEL > 100 µM
